Results reported in PubChem BioAssay (NCI).
Where “and” joins values, the source holds several entries; their conditions need not be identical. Identical values can stand only once.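 1) Cells in 96-well plates. 2) Compound, 48 h, 5 concentrations. 3) Linear interpolation between surrounding doses. 4) Unreached endpoint = highest concentration. GI50 = concentration required for 50% inhibition of growth. TGI: concentration producing complete growth inhibition.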

Tests used:
Test in all cases: NCI-60 cell line screen, 48 h
[1] = test system: NCI/ADR-RES ovarian
[2] = test system: KM12 colon
[3] = test system: HOP-62 NSCLC
[4] = test system: MCF7 breast
[5] = test system: RXF 393 renal
[6] = test system: CAKI-1 renal
[7] = test system: SK-MEL-5 melanoma
[8] = test system: 786-0 renal
[9] = test system: HCT-15 colon
[10] = test system: MOLT-4 leukemia

SMILES | TGI [1] | TGI [2] | TGI [3] | TGI [4] | TGI [5] | TGI [6] | TGI [7] | TGI [8] | TGI [9] | TGI [10] | GI50 [1] | GI50 [2] | GI50 [3] | GI50 [4] | GI50 [5] | GI50 [6] | GI50 [7] | GI50 [8] | GI50 [9] | GI50 [10]
O=C1c2ccccc2S(=O)(=O)c2cc(-c3nn[nH]n3)ccc21 | > 100 µM | > 100 µM | > 100 µM | > 100 µM | > 100 µM | > 100 µM | > 100 µM | > 100 µM | > 100 µM | > 100 µM | – | – | – | – | – | – | – | – | – | –
O=c1c(O)c(-c2cc(O)c(O)c(O)c2)oc2cc(O)cc(O)c12 | 53.2 µM | 33.1 µM | 41.4 µM | 37.4 µM | 43.4 µM | 54 µM | > 100 µM | 44.8 µM | 71.8 µM | > 100 µM | – | – | – | – | – | – | – | – | – | –
O=C1CCc2c(sc3[nH]c(=S)n(Cc4ccc(Cl)cc4)c(=O)c23)C1 | > 41.8 µM | 1.68 µM | > 100 µM | > 38.6 µM | 5.05 µM | – | 1.13 µM | > 100 µM | 1.64 µM | 17.1 µM | 0.408 µM | 0.361 µM | 1.47 µM | 2.22 µM | 0.401 µM | 0.451 µM | 0.362 µM | 1.23 µM | 0.347 µM | 1.21 µM
Cc1ccc(O)c(NC(=O)c2ccc(CNc3ccnc(C(F)(F)F)c3)cc2)c1 | 37.8 µM | 24.3 µM | 30.5 µM | 38.9 µM | 63.1 µM | 40.6 µM | 14.7 µM | 47.7 µM | 76.3 µM | 20.6 µM | 4.68 µM | 4.75 µM | 4.79 µM | 4.06 µM | 25.4 µM | 6.33 µM | 4.07 µM | 5.2 µM | 5.19 µM | 1.77 µM
Cc1cccc(NC(=O)c2cccc([N+](=O)[O-])c2O)c1C | > 100 µM | > 69.4 µM | 52.4 µM | 81.2 µM | 53.6 µM | > 100 µM | 27.6 µM | > 100 µM | > 100 µM | > 92.7 µM | – | – | – | – | – | – | – | – | – | –
CC(=O)OCc1cc2ccccc2nc1C(Br)(Br)Br | 44 µM | 27.6 µM | 56.3 µM | 30.7 µM | 33.4 µM | 29.5 µM | 23.9 µM | 46 µM | 54.7 µM | 28.1 µM | – | – | – | – | – | – | – | – | – | –
CN(Cc1cc(C(C)(C)C)cc(Br)c1O)Cc1cc(C(C)(C)C)cc(Br)c1O | 11.1 µM | 12.9 µM | 15.5 µM | 10.7 µM | 7.98 µM | 11.4 µM | 7.76 µM | 13.8 µM | 12.1 µM | 19.9 µM | – | – | – | – | – | – | – | – | – | –
Cc1cc(N2CCOCC2)cc2[nH]c(-c3c(NC[C@@H](O)c4cccc(Cl)c4)cc[nH]c3=O)nc12 | 12.3 µM | 4.46 µM | 12.3 µM | 15.8 µM | 2.11 µM | 5.72 µM | 11.3 µM | 4.02 µM | 31.5 µM | 27.7 µM | 2.83 µM | 0.0161 µM | 2.16 µM | 0.233 µM | 0.567 µM | 1.46 µM | 2.13 µM | 1.21 µM | 2.08 µM | 3.14 µM
CCNC(=O)O[C@H]1CN[C@H](C#Cc2cc3ncnc(Nc4ccc(OCc5cccc(F)c5)c(Cl)c4)c3s2)C1 | > 25 µM | > 23.1 µM | > 25 µM | > 25 µM | > 17.3 µM | > 25 µM | > 25 µM | > 16.6 µM | > 25 µM | > 25 µM | 6.19 µM | 6.59 µM | 14.9 µM | 8.95 µM | 4.75 µM | 0.88 µM | 10.2 µM | 5.69 µM | 9.83 µM | 4.58 µM
CCOc1ccc2nc(NC(=O)C(=O)C(c3cnc4ccccc4n3)[N+](=O)[O-])sc2c1 (centres undefined) | > 100 µM | > 100 µM | > 100 µM | > 100 µM | > 100 µM | > 100 µM | > 100 µM | > 100 µM | > 100 µM | > 100 µM | – | – | – | – | – | – | – | – | – | –
O=C(OC[C@H]1O[C@H](OC(=O)c2cc(O)c(O)c(OC(=O)c3cc(O)c(O)c(O)c3)c2)[C@H](OC(=O)c2cc(O)c(O)c(OC(=O)c3cc(O)c(O)c(O)c3)c2)[C@@H](OC(=O)c2cc(O)c(O)c(OC(=O)c3cc(O)c(O)c(O)c3)c2)[C@@H]1OC(=O)c1cc(O)c(O)c(OC(=O)c2cc(O)c(O)c(O)c2)c1)c1cc(O)c(O)c(OC(=O)c2cc(O)c(O)c(O)c2)c1 | 18.9 µM | > 25 µM | > 25 µM | 11.1 µM | 7.48 µM | > 25 µM | 13.1 µM | 20.2 µM | > 25 µM | > 25 µM | 1.3 µM | 1.67 µM | 1.78 µM | 5.21 µM | 1.2 µM | 1.39 µM | 2.98 µM | 4.89 µM | 6.2 µM | 4.32 µM
Cc1ncc(C(=O)Nc2ccc(CN3CCN(C)CC3)c(C(F)(F)F)c2)cc1C#Cc1cnc(N)cc1C#N | 5.24 µM | 1.98 µM | 2.91 µM | 4.48 µM | 1.47 µM | 1.38 µM | 2.76 µM | 0.835 µM | 2.71 µM | 3.16 µM | 2.12 µM | 0.00758 µM | 0.573 µM | 1.69 µM | 0.227 µM | 0.154 µM | 0.711 µM | 0.38 µM | 0.548 µM | 0.336 µM
Cc1cn(-c2cc(NC(=O)c3ccc(C)c(Nc4nccc(-c5cccnc5)n4)c3)cc(C(F)(F)F)c2)cn1 | > 10 µM and 16.1 µM | > 10 µM and 9.49 µM | > 10 µM and 26.3 µM | 7.39 µM and 7.55 µM | 6.54 µM and 4.12 µM | > 10 µM and 14.3 µM | 7.01 µM | > 10 µM and 7.1 µM | > 38.3 µM | > 37.2 µM | 5.72 µM and 2.5 µM | 3.81 µM and 2.72 µM | > 10 µM and 8.92 µM | 2.49 µM and 2.35 µM | 2.59 µM and 2.01 µM | > 10 µM and 7.37 µM | 1.73 µM | > 10 µM and 2.24 µM | 3.18 µM and 4.6 µM | 3.21 µM and 1.6 µM
